From patent publication US20170202835A1, “OSMOLYTE-CONTAINING PREPARATION FOR THE TREATMENT OF DRY MUCOUS MEMBRANES” (Bitop AG, priority 2007, published 2017)
Entries after “also recorded” stand apart in the source; their conditions may differ.

System: TR146 cells
Assay: Mucus production in TR146 cells (PAS staining, image analysis)
Type: cell-based, human
Conditions: 0.5% FCS, 16 h incubation
Method: To evaluate possible effects of compatible solutes on mucus production an in vitro cell culture model was used. For this purpose a mucus producing cell line, TR146, served as a model for the situation in the human mouth. The cells were incubated with ectoine and other substances. After treatment the cells were stained with PAS (Periodic Acid-Schiff) to determine the mucus content.
TR146 cells were seeded and grown on glass plates in 96 wells until they reached nearly confluence. The glass plates were coated with Poly-L-Lysine to ensure a good attachment of the cells. After reaching confluence the cells were set to 0.5% FCS (Fetal Calf Serum) and were incubated with ectoine, glucosylglycerole and prostaglandine for 16 h, whereas the control sample was not treated further. Prostaglandine is known in the literature to stimulate mucus production (Tani et al., Biol Pharm Bull 25 (1), 2002, 14-18).
After the incubation time, cells were stained with a PAS staining kit from Sigma Aldrich to stain the whole mucus on top of the cells. For analysis pictures were taken with the Dino Eye Capture Camera. The pictures were afterwards analyzed with Image J software.
These areas were marked with the Image software Image J and the pixel area was determined. The average results were given as percentage relative to the control (=100%) (FIG. 2).

Row | SMILES | Mucus production (PAS-stained pixel area relative to control = 100%)
1 | CC1=NC(C(=O)O)CCN1 (stereo not drawn) [Ectoine, 1,4,5,6-tetrahydro-2-methyl-pyrimidine-4-carboxylic acid] | showed a tendency to stimulate the mucus production; also recorded: did so, too, although to a lesser extent
2 | CCCCC[C@H](O)/C=C/[C@H]1[C@H](O)CC(=O)[C@@H]1C/C=C\CCCC(=O)O [Prostaglandin E2, reference compound] | showed an induction of mucus production
3 | OCC(CO)O[C@H]1O[C@H](CO)[C@@H](O)[C@H](O)[C@H]1O [glucosylglycerol] | showed a tendency to stimulate the mucus production; also recorded: did so, too, although to a lesser extent
